#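 Exposure lasted 48 hours, with cells grown in 96-well plates and compounds tested at five concentrations. TGI is the concentration that stops growth completely.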
# Legend:
# Experiment in all cases: NCI anticancer screen, dose series, 48 h
# [1] = test system: OVCAR-8 ovarian
# [2] = test system: HOP-62 NSCLC
# [3] = test system: NCI-H460 lung
# [4] = test system: MDA-N
# [5] = test system: IGROV1 ovarian
# [6] = test system: HOP-92 NSCLC
# [7] = test system: EKVX NSCLC
# [8] = test system: HCT-15 colon
# [9] = test system: SW-620 colon
# [10] = test system: RXF 393 renal
SMILES,TGI [1] [µM],TGI [2] [µM],TGI [3] [µM],TGI [4] [µM],TGI [5] [µM],TGI [6] [µM],TGI [7] [µM],TGI [8] [µM],TGI [9] [µM],TGI [10] [µM]
CN(C)Cc1cc(N=Nc2c(Cl)cccc2Cl)ccc1O,> 100,> 100,> 100,> 100,> 100,> 100,> 100,> 100,> 100,> 100
CC(C)(C)c1cc(C(C)(C)C)c(P=C(Cl)Cl)c(C(C)(C)C)c1 (stereo not given),> 100,> 100,> 100,> 100,> 100,> 100,> 100,> 100,> 100,–
COC(=O)CC[N+]1([O-])CC1,> 100,> 100,> 100,–,> 100,> 100,> 100,> 100,> 100,> 100
COc1ccccc1/[N+]([O-])=C/c1ccccc1OC(=S)S,66.2,–,> 100,35.9,77.2,61.8,> 100,> 100,> 100,> 100
CCOC(=O)NC(OCCN(C)C)(C(F)(F)F)C(F)(F)F,> 100,> 100,> 100,> 100,> 100,> 100,> 100,> 100,> 100,> 100
CC(=O)N1c2ccccc2C2=NN=C(N(C)C)SC21 (stereo not given),12.1,23.4,13.3,19.7,–,–,12.8,15.6,20,–
CC1=CC(=C(c2ccc(N)c(C)c2)c2ccc(N)c(C)c2)C=CC1=N,18.3,10.4,> 31.6,–,71.8,14.2,45.8,> 61.4,17.7,51.2
CCC(C)C1=C(O)[N+]2([O-])Oc3ccc(-c4c(O)c(O)c(-c5ccc(O)cc5)c(OC(C)=O)c4OC(C)=O)cc3OC2(C(C)CC)C(=O)N1O (stereo not given),> 50,–,> 50,> 50,> 50,–,> 50,> 50,> 50,> 50
COc1cc2c(cc1C)NC(=O)/C2=C\c1cccnc1,72.6,51.9,85.4,–,–,59.5,52.9,> 100,84.8,43.1
CCOC(=O)/C(=C\NC[C@@H](C)O)c1nc2ccccc2[nH]1,> 100,> 100,> 100,> 100,> 100,> 100,> 100,> 100,> 100,> 100
CC[N+](C)(C)c1ccc(C(=C2C=CC(=[N+](C)C)C=C2)c2ccc(N(C)C)cc2)cc1,64.9,41.2,22.4,–,40.8,54.8,> 100,89.4,52.1,> 100
N#Cc1c(-c2cccc(Br)c2)cc(-c2ccc(Cl)cc2)nc1N,> 100,79.1,50.8,46.7,34.3,32.4,56.7,30,36,34.6
C=CCN1C(=O)/C(=C/c2ccccc2)N=C1SC/C=C/C,> 100,> 100,> 100,–,> 100,55.5,–,> 100,> 100,46.7
Nc1ccc2c(c1)N(C(=O)CCCC(=O)N1CC(CCl)c3ccc(N)cc31)CC2CCl (stereo not given),> 11.2,8.94,> 50,3.82,> 11.3,> 50,7.8,> 14.6,> 50,0.582
CCOC(=O)c1csc(NC(=O)CN2CCCCC2)n1,> 100,> 100,> 100,> 100,> 100,> 100,> 100,> 100,> 100,> 100
COC(=O)CC(SCCO)SCCO,> 100,> 100,> 100,> 100,> 100,> 100,> 100,–,> 100,> 100
O=S(=O)(O)c1cccc2ccc(O)c(N=Nc3ccc(S(=O)(=O)c4ccc(N=Nc5c(O)ccc6cccc(S(=O)(=O)O)c56)cc4)cc3)c12,> 100,> 100,–,> 100,> 100,> 100,> 100,> 100,> 100,> 100
COc1ccc(-c2cc(-c3ccccc3)c3c(n2)-c2ccccc2NC(=O)C3)cc1,30.1,> 100,> 100,> 100,52.6,> 100,> 100,> 100,> 100,> 100
COc1ccc(/C=C/C(=N/NC(=O)N/N=C(/C=C/c2ccc(OC)cc2)C(C)C)C(C)C)cc1,> 100,> 100,> 100,> 100,> 100,> 100,> 100,> 100,> 100,> 100
CC(C)C(=O)CC(Sc1ccc(N)cc1)c1ccccc1 (stereo not given),96.9,83.9,74.9,35.5,> 100,–,–,> 100,34.8,89.1
N#Cc1cccc(Nc2ccccc2SSc2ccccc2Nc2cccc(C#N)c2)c1,> 21.5,> 21.5,12.8,–,16.9,19,> 21.5,> 21.5,9.19,–

# — PubChem BioAssay (NCI)
